Laboratory results from PMC12395388 (Regulatory toxicology and pharmacology : RTP, 2024).
“Also recorded” adds a separate entry of the source. Like-named read-outs stand apart in the source and are kept apart here.

Assays:
[1] = published by FDA as of September 4, 2024, ref FDA, 2024a; cited from earlier work
[2] = PC1 most potent, PC5 least potent; ref FDA, 2024a; cited from earlier work
[3] = tested on: Ames tester strains; conditions: cited from earlier work
[4] = tested on: E. coli WP2 uvrA (pKM101); experiment: Preincubation Ames test, strain WP2 uvrA; format: cell-based, Escherichia coli; conditions: for Mutagenic response in WP2 uvrA (pKM101): any activation condition and preincubation time; for Effectiveness of time of preincubation for most effective S9 / Effectiveness of hamster vs. rat S9s for each positive strain: strain WP2 uvrA (pKM101); for Effectiveness of time of preincubation for most effective S9: 30 vs 60 min; for Effectiveness of hamster vs. rat S9s for each positive strain: H = hamster liver S9, R = rat liver S9
[5] = tested on: Salmonella typhimurium tester strains TA98, TA100, TA1535, and TA1537, and Escherichia coli strain WP2 uvrA (pKM101); experiment: Preincubation Ames test, five tester strains; format: cell-based; conditions: for Effect of length of preincubation on positive responses: 30 min vs 60 min, over all strains
[6] = tested on: Salmonella typhimurium TA1535; experiment: Preincubation Ames test, strain TA1535; format: cell-based; conditions: for Mutagenic response in TA1535: any activation condition and preincubation time; for Effectiveness of time of preincubation for most effective S9: 30 vs 60 min
[7] = tested on: Salmonella typhimurium TA100; experiment: Preincubation Ames test, strain TA100; format: cell-based; conditions: for Effectiveness of time of preincubation for most effective S9: strain TA100, 30 vs 60 min
[8] = tested on: CHO, V79, L5178Y/Tk+/−, TK6, HepaRG cells; conditions: cell lines as named in the value; ref as given in Table 2 Notes; cited from earlier work
[9] = cited from earlier work
[10] = tested on: Salmonella typhimurium TA98; experiment: Preincubation Ames test, strain TA98; format: cell-based; conditions: for Effectiveness of time of preincubation for most effective S9: strain TA98, 30 vs 60 min; for Direct-acting mutagenicity in TA98: no exogenous metabolic activation (no S9)
[11] = listed as N-nitroso-N-ethylaniline
[12] = published/posted results, ref representative Ames references of Table 2
[13] = with S9 activation, listed as N-nitroso-propranolol

SMILES | AI limit [1] | CPCA Potency Category (PC) [2] | Effectiveness of time of preincubation for most effective S9 [4] | Effectiveness of time of preincubation for most effective S9 ([6]; strain TA1535) | Effectiveness of time of preincubation for most effective S9 [7] | other results
CN(C[C@H](O)c1cccc(O)c1)N=O [NDSRI-13, N-[(2R)-2-Hydroxy-2-(3-hydroxyphenyl)ethyl)-N-methylnitrous amide] | 100 ng/day | PC2 |  |  |  | 
CCN(N=O)c1ccccc1 [SM-8, N-Ethyl-N-phenylnitrous amide] |  |  | 60min ≥ 30min |  |  | Ames response (all S9-mediated except where noted) [3]: Positive only with comutagen; Mutagenic response in WP2 uvrA (pKM101) [4, 11]: positive only; Mutagenic response in WP2 uvrA (pKM101) ([4]; listed as NEPA): mutagenic; Effect of length of preincubation on positive responses [5]: benefited from a preincubation of 60 min compared with 30 min; Mutagenic response in TA1535 [6, 11]: negative; Mutagenic response in TA1535 ([6]; listed as NEPA): not positive
O=NN(c1ccccc1CC(=O)O)c1c(Cl)cccc1Cl [NDSRI-19, 2-[2-(2,6-Dichloro-N-nitrosoanilino)phenyl]acetic acid] | 1500 ng/day |  |  |  |  | 
CN(CCC=C1c2ccccc2CCc2ccccc21)N=O [NDSRI-18, N-Methyl-N-[3-(2-tricyclo[9.4.0.03,8]pentadeca-1 (15),3,5,7,11,13-hexaenylidene)propyl]nitrous amide] |  |  | 60min = 30min | 60min = 30min | 60min = 30min | 
CCN(N=O)C(C)C [SM-3, N-Ethyl-N-propan-2-ylnitrous amide] | 400 ng/day | PC3 | 60min = 30min | 60min = 30min |  | Mutagenicity/genotoxicity in mammalian cells in vitro [8]: Genotoxic in HepaRG, TK6 cells ([Li et al., 2022]; [Seo et al., 2023])
CC(C)N(N=O)C(C)C [SM-5, N,N-Di(propan-2-yl)nitrous amide] | 1500 ng/day | PC5 |  | 60min = 30min |  | Activation condition required for positive responses ([5]; no S9, 10% and 30% rat or hamster liver S9, all strains, listed as NDIPA): positives were seen only with one strain (TA1535) and under one activation condition (preincubation with 30% hamster S9 mixes); also recorded: dependent upon preincubation with 30% hamster S9; also recorded: exclusively mutagenic with hamster liver S9; Mutagenic response in TA1535 [6]: only positive strain; More effective %S9 in S9 mix of more effective S9 (H or R) ([6]; strain TA1535, 10% vs 30% S9 in the S9 mix): 30% only; Effectiveness of hamster vs. rat S9s for each positive strain ([6]; strain TA1535, H = hamster liver S9, R = rat liver S9): H only
CN(CCOC(c1ccccc1)c1ccccc1)N=O [NDSRI-16, N-(2-(Benzhydryloxy)ethyl)-N-methylnitrous amide] |  |  | 60min >30min | 60min = 30min | 60min = 30min | Effect of length of preincubation on positive responses [5]: possibly N-nitroso-desmethyl-diphenhydramine benefited from a preincubation of 60 min compared with 30 min
CC(C)[C@H](C(=O)O)N(Cc1ccc(-c2ccccc2-c2nn[nH]n2)cc1)N=O [NDSRI-25, (2R)-3-Methyl-2-[nitroso-[[4-[2-(2H-tetrazol-5-yl)phenyl]phenyl]methyl]amino]butanoic acid] |  |  |  |  |  | Ames response (all S9-mediated except where noted) [3]: Negative; Mutagenicity in TGR assay ([9]; in vivo): Also negative in mouse TGR assay ([Glowienke et al., 2022])
C[C@H]1CN(N=O)CCc2ccc(Cl)cc21 [NDSRI-14, (5R)-7-Chloro-5-methyl-3-nitroso-1,2,4,5-tetrahydro-3-benzazepine] |  |  | 60min = 30min | 60min = 30min | 60min = 30min | Effectiveness of time of preincubation for most effective S9 [10]: 60min = 30min
O=NN1CCN(C2CCCC2)CC1 [SM-10, 1-Cyclopentyl-4-nitrosopiperazine] | 400 ng/day | PC3 | 60min = 30min | 60min = 30min | 30min ≥60min | Effectiveness of hamster vs. rat S9s for each positive strain [4]: H only; Mutagenicity/genotoxicity in mammalian cells in vitro [8]: Genotoxic in HepaRG cells ([Seo et al., 2023])
CN(N=O)C1CCC(c2ccc(Cl)c(Cl)c2)c2ccccc21 (stereo not shown) [NDSRI-21, N-(4-(3,4-Dichlorophenyl)-1,2,3,4-tetrahydronaphthalen-1-yl)-N-methylnitrous amide] | 100 ng/day | PC2 | 30min >60min |  |  | Mutagenic response in WP2 uvrA (pKM101) ([4]; listed as N-nitroso-sertraline): positive only; also recorded: mutagenic; Effectiveness of hamster vs. rat S9s for each positive strain [4]: H only; Effect of length of preincubation on positive responses [5]: greater mutagenic responses with 30-min preincubations than with 60-min preincubations; Mutagenic response in TA1535 ([6]; listed as N-nitroso-sertraline): negative; also recorded: not positive
CN(CCC(Oc1cccc2ccccc12)c1cccs1)N=O (stereo not shown) [NDSRI-20, N-Methyl-N-(3-naphthalen-1-yloxy-3-thiophen-2-ylpropyl) nitrous amide] | 100 ng/day |  | 60min = 30min | 60min = 30min | 30min >60min | Ames response (all S9-mediated except where noted) [3, 12]: Positive; Mutagenicity in TGR assay ([9]; species as in value, ref as given in Table 2 Notes): Interim AI limit currently in force; mutagenic in rat TGR assay ([Jolly et al., 2024])
CC(C)N(CC(O)COc1cccc2ccccc12)N=O (stereo not shown) [NDSRI-17, N-(2-Hydroxy-3-naphthalen-1-yloxypropyl)-N-propan-2-ylnitrous amide] | 1500 ng/day | PC4 |  | 60min = 30min | 60min = 30min | Ames response (all S9-mediated except where noted) [3, 12]: Positive; direct-acting in TA98; S9-mediated mutagenicity in TA1535 [6, 13]: mutagenic; Direct-acting mutagenicity in TA98 [10]: b Direct acting mutagen in TA98.; Direct-acting mutagenicity in TA98 ([10]; listed as N-nitroso-propranolol): direct acting mutagen; also recorded: direct-acting mutagenicity of N-nitroso-propranolol was limited to TA98; Effectiveness of time of preincubation for most effective S9 [10]: 60min = 30min; S9-mediated mutagenicity in TA100 [7, 13]: mutagenic
CCCCCCOC(=O)NC(=N)c1ccc(N(Cc2nc3cc(C(=O)N(CCC(=O)OCC)c4ccccn4)ccc3n2C)N=O)cc1 [NDSRI-29, Ethyl 3-[[2-[[4-(N-hexoxycarbonylcarbamimidoyl)-N-nitrosoanilino]methyl]-1-methylbenzimidazole-5-carbonyl]-pyridin-2-ylamino]propanoate] | 400 ng/day | PC3 |  |  |  | 
